Assay results taken from PMC6199744, “Development of Chemical Proteomics for the Folateome and Analysis of the Kinetoplastid Folateome” (ACS Infectious Diseases, 2018).
“And” between values parts separate entries of the source, which are not always exact repeats. Equal entries are not always repeated. Where two headings read alike, the source gives them in different places.

System: L. major lysate proteins
Test: Multitargeted bead mixture chemoproteomics, single concentration competition, proteome-wide
Format: binding
Settings: for fold change / fold change relative to vehicle control: vehicle control = 1; for fold change relative to vehicle control: competition with free ligand

Nc1nc2cccc(-c3ccccc3)c2n1Cc1ccc(Cl)c(Cl)c1 [compound 3]
fold change vs vehicle control: 1.02 and 1.09 and 1 | fold change (LINJ.05.0500 ATPASE ALPHA SUBUNIT): 1.08 | fold change (LINJ.36.4570 […] SUBUNIT): 0.83 | fold change (LMJF.10.0510 GLYCEROL-3-PHOSPHATE DEH[…] ], GLYCOSOMAL): 0.91 | fold change (LMJF.16.1610 PROHIBITIN): 1.25 | fold change (LMJF.18.1370 HEAT SHOCK PROTEIN, PUTATIVE): 1.16 | fold change (LMJF.19.0300 RNA BINDING PROTEIN, PUTATIVE): 0.91 | fold change (LMJF.21.0760 […]-ATP-ASE SUBUNIT 5, PUTATIVE): 0.77 | fold change (LMJF.22.0410 HY[…], CONSERVED): 0.97 | fold change (LMJF.25.1770 ENOYL-COA REDUCTASE, PUTATIVE): 1.06 | fold change (LMJF.26.0300 AMINOPEPTIDASE-LIKE PROTEIN): 0.7 | fold change (LMJF.26.2560 HY[…], CONSERVED): 1.1 | fold change (LMJF.27.1810 GLYCOSOMAL PHOSPHOENOLPYRUVATE CARBOXYKINASE, PUTATIVE): 1.1 | fold change (LMJF.28.0490 PROPIONYL-COA C[…] CHAIN, PUTATIVE): 0.63 | fold change (LMJF.29.0940 HY[…], CONSERVED): 1.08 | fold change (LMJF.29.1310 CARNITINE/CHOLINE ACETYLTRANSFERASE, PUTATIVE): 0.86 | fold change (LMJF.29.1470 HY[…], CONSERVED): 0.86 | fold change (LMJF.29.2440 HY[…], CONSERVED): 1.01 | fold change (LMJF.30.2350 SPHINGOSINE 1-PHOSPHATE LYASE): 1.2 | fold change (LMJF.30.2970 GLYCERALDEHYDE 3-PHOSPHATE DEHYDROGENASE, GLYCOSOMAL): 1.09 | fold change (LMJF.30.3390 CAS/CSE/IMPORTIN DOMAIN PROTEIN, PUTATIVE): 0.98 | fold change (LMJF.31.2650 ACETOIN DEHYDROGENASE E3 COMPONENT-LIKE PROTEIN): 0.96 | fold change (LMJF.31.2970 ACETYL-COA CARBOXYLASE, PUTATIVE): 0.89 | fold change (LMJF.33.1030 HY[…], CONSERVED): 0.88 | fold change (LMJF.35.5040 polyadenylate-binding protein 1): 0.88 | fold change (LMJF.35.5250 ALPHA-1,2-MANNOSYLTRANSFERASE, PUTATIVE): 0.83 | fold change (LMJF.36.5100 HY[…], CONSERVED): 1.03 | fold change (LMJF.[…] RIBOSOMAL PROTEIN S7, PUTATIVE): 1.35 | fold change vs vehicle control (protein LINJ.03.0940 HY[…], CONSERVED): 1.07 | fold change vs vehicle control (protein LINJ.09.0030 HY[…], CONSERVED): 0.7 | fold change relative to vehicle control (protein LINJ.11.0780 40S RIBOSOMAL PROTEIN S21, PUTATIVE): 1.32 | fold change (protein LINJ.13.0990 […] SUBUNIT 2, PUTATIVE): 0.91 | fold change vs vehicle control (protein LINJ.13.1460 ALPHA TUBULIN): 0.98 | fold change (protein LINJ.15.0090 HEAT SHOCK PROTEIN HSLVU, ATPASE SUBUNIT HSLU, PUTATIVE): 0.88 | fold change relative to vehicle control (protein LINJ.16.1380 […], PUTATIVE): 0.96 | fold change vs vehicle control (protein LINJ.19.0300 RNA BINDING PROTEIN): 1.22 | fold change (protein LINJ.20.0630 CYTIDINE TR[…], PUTATIVE): 1.05 | fold change relative to vehicle control (protein LINJ.20.1390 COATOMER BETA SUBUNIT, PUTATIVE): 0.93 | fold change vs vehicle control (protein LINJ.21.1310 40S RIBOSOMAL PROTEIN S23, PUTATIVE): 1.16 | fold change vs vehicle control (protein LINJ.23.1680 HY[…], CONSERVED): 1.1 | fold change vs vehicle control (protein LINJ.25.1170 […] OXIDASE VII, PUTATIVE): 1.01 | fold change relative to vehicle control (protein LINJ.25.1220 RIBOSOMAL PROTEIN S25): 1.27 | fold change vs vehicle control (protein LINJ.26.1080 HY[…], CONSERVED): 1.08 | fold change vs vehicle control (protein LINJ.27.1140 HY[…], CONSERVED): 1.02 | fold change vs vehicle control (protein LINJ.28.1100 RIBOSOMAL PROTEIN S20, PUTATIVE): 0.97 | fold change relative to vehicle control (protein LINJ.28.1940 R[…] A, 51KDA SUBUNIT, PUTATIVE): 1.1 | fold change (protein LINJ.31.2350 ADP-RI[…], PUTATIVE): 1.09 | fold change vs vehicle control (protein LINJ.34.0670 […]-ATP-ASE SUBUNIT 11, PUTATIVE): 0.75 | fold change (protein LINJ.35.0410 40S RIBOSOMAL PROTEIN S3A, PUTATIVE): 1.1 | fold change relative to vehicle control (protein LINJ.35.0780 CBS DOMAIN PROTEIN, CONSERVED): 1.01 | fold change vs vehicle control (protein LINJ.36.0510 HY[…], CONSERVED): 0.99 | fold change vs vehicle control (protein LINJ.36.3940 40S RIBOSOMAL PROTEIN S27-1, PUTATIVE): 0.88 | fold change (protein LINJ.36.4180 HS1VU COMPLEX P[…]-LIKE): 0.87 | fold change (protein LINJ.36.7350 […] OXIDASE SUBUNIT I): 0.96 | fold change (protein LMJF.01.0520 LONG-CHAIN-FATTY-ACID-COA LIGASE, PUTATIVE): 0.91 | fold change vs vehicle control (protein LMJF.02.0460 HY[…], CONSERVED): 1.05 | fold change vs vehicle control (protein LMJF.03.0230 LONG CHAIN FATTY ACYL COA SYNTHETASE, PUTATIVE): 0.98 | fold change vs vehicle control (protein LMJF.03.0630 HY[…], CONSERVED): 0.95 | fold change (protein LMJF.05.0780 HY[…], CONSERVED): 1.06 | fold change (protein LMJF.06.0010 HISTONE H4): 1.11 | fold change (protein LMJF.06.0140 […] 6 SUBUNIT, PUTATIVE): 0.69 | fold change (protein LMJF.06.0650 […], PUTATIVE): 1 | fold change vs vehicle control (protein LMJF.08.0510 RIBOSE-PHOSPHATE PYROPHOSPHOKINASE, PUTATIVE): 0.99 | fold change vs vehicle control (protein LMJF.08.0550 T[…]-LIKE PROTEIN): 1.01 | fold change vs vehicle control (protein LMJF.08.1100 HY[…], CONSERVED): 0.98 | fold change relative to vehicle control (protein LMJF.09.1120 MIT[…] BINDING PROTEIN 2,MRP2, GBP25): 1.01 | fold change vs vehicle control (protein LMJF.09.1260 HY[…], CONSERVED): 0.98 | fold change (protein LMJF.10.1010 NUCLEOSIDE PHOSPHORYLASE-LIKE PROTEIN): 0.97 | fold change (protein LMJF.10.1240 HY[…], CONSERVED): 0.91 | fold change vs vehicle control (protein LMJF.11.0130 NGG1 I[…] 3-LIKE PROTEIN): 0.94 | fold change vs vehicle control (protein LMJF.11.0240 […] 7 SUBUNIT, PUTATIVE): 1.1 | fold change (protein LMJF.11.1050 PRETRA[…], ALPHA SUBUNIT, PUTATIVE): 1.24 | fold change vs vehicle control (protein LMJF.11.1110 60S RIBOSOMAL PROTEIN L28, PUTATIVE): 1.17 | fold change vs vehicle control (protein LMJF.12.0210 […] […]1L8 3, PUTATIVE): 1.07 | fold change vs vehicle control (protein LMJF.12.0280 ORNITHINE DECARBOXYLASE, PUTATIVE): 1 | fold change vs vehicle control (protein LMJF.13.0450 HY[…], CONSERVED): 0.93 | fold change vs vehicle control (protein LMJF.13.0870 MIT[…] ALPHA SUBUNIT, PUTATIVE): 1.33 | fold change vs vehicle control (protein LMJF.14.0130 INOSINE-GUANINE […], PUTATIVE): 0.93 | fold change (protein LMJF.14.0310 […] 3 SUBUNIT, PUTATIVE): 0.98 | fold change (protein LMJF.14.0650 FATTY ACID ELONGASE, PUTATIVE): 1.11 | fold change (protein LMJF.14.0660 FATTY ACID ELONGASE, PUTATIVE): 1.17 | fold change (protein LMJF.14.0705 FATTY ACID ELONGASE, PUTATIVE): 1.24 | fold change (protein LMJF.14.0740 FATTY ACID ELONGASE, PUTATIVE): 1.23 | fold change relative to vehicle control (protein LMJF.14.1120 KINESIN K39, PUTATIVE): 1.49 | fold change vs vehicle control (protein LMJF.15.0230 LYSYL-TRNA SYNTHETASE, PUTATIVE): 1.01 | fold change vs vehicle control (protein LMJF.15.0280 RIBONUCLEOPROTEIN P18, MIT[…], PUTATIVE): 0.99 | fold change (protein LMJF.15.1010 GLUTAMATE DEHYDROGENASE): 1.08 | fold change relative to vehicle control (protein LMJF.16.0520 HY[…], CONSERVED): 1.36 | fold change (protein LMJF.16.0540 ASPARTATE […], PUTATIVE): 1.04 | fold change vs vehicle control (protein LMJF.16.0950 SUCROSE-PHOSPHATE SYNTHASE-LIKE PROTEIN): 1.31 | fold change vs vehicle control (protein LMJF.16.0960 HY[…], CONSERVED): 0.93 | fold change (protein LMJF.16.1180 COATOMER DELTA SUBUNIT-LIKE PROTEIN): 1.08 | fold change (protein LMJF.17.0010 HY[…], CONSERVED): 1.07 | fold change vs vehicle control (protein LMJF.18.0510 ACONITASE, PUTATIVE): 1.01 | fold change vs vehicle control (protein LMJF.18.0890 RAB7 GTP BINDING PROTEIN, PUTATIVE): 0.91 | fold change (protein LMJF.18.1130 RAS-RELATED PROTEIN RAB-5, PUTATIVE): 1 | fold change (protein LMJF.19.1120 […]-ATP-ASE SUBUNIT, PUTATIVE): 0.82 | fold change vs vehicle control (protein LMJF.19.1160 HY[…], CONSERVED): 3.16 | fold change vs vehicle control (protein LMJF.19.1530 PEPT[…]-LIKE PROTEIN): 1.01 | fold change (protein LMJF.20.0100 PHOSPH[…] C, GLYCOSOMAL): 1.01 | fold change vs vehicle control (protein LMJF.21.0720 HY[…], CONSERVED): 0.93 | fold change (protein LMJF.21.1250 ADENYLATE KINASE, PUTATIVE): 0.71 | fold change (protein LMJF.21.1555 HY[…], CONSERVED): 1.05 | fold change (protein LMJF.21.1580 HY[…], UNKNOWN FUNCTION): 1.2 | fold change vs vehicle control (protein LMJF.21.1700 […] 2 SUBUNIT, PUTATIVE): 1.03 | fold change (protein LMJF.22.0230 AMINO ACID PERMEASE, PUTATIVE): 1.26 | fold change (protein LMJF.22.0570 […] SUBUNIT 1, PUTATIVE): 0.99
